Assays:
[1] = target: T1, purified His-TFEB (Homo sapiens, UniProt P19484); assay: Binding of solid-phase compound to purified recombinant His-TFEB; details: 17 μmol compound powder, RIPA buffer, 2 hours at 4° C.; 55 kDa band by TFEB antibody
T1 construct: purchased ORIGENE TP760282
T1 sequence (P19484 1-476): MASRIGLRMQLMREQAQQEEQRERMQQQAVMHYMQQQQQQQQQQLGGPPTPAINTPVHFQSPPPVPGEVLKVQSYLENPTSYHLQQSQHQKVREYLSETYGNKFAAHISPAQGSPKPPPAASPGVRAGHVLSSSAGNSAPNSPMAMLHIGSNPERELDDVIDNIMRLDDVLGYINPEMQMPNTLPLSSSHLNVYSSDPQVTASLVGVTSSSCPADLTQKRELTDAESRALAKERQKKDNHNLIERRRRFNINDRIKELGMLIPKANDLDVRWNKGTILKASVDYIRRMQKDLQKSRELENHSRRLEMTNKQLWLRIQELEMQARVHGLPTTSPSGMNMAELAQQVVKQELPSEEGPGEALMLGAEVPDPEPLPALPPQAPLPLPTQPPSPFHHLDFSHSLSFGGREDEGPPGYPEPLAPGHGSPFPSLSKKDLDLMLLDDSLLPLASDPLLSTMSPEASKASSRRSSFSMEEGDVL
Description: Hela cells stably expressing 3×Flag-TFEB are treated with C1 (1 μM) for 12 h. Endogenous MTOR (A) and YWHA (B) are co-immunoprecipitated with Flag-TFEB. The levels of immunoprecipitated MTOR and YWHA are normalized to their corresponding levels in whole cell lysates (WCL). […] However, when MTOR and YWHA coimmunoprecipitated with Flag-TFEB after C1 treatment, interaction of MTOR and YWHA is decreased as compared with control. […] Furthermore, purified His-TFEB (TP760282, ORIGENE) is diluted in RIPA buffer and 17 μmol curcumin (6.3 mg) or C1 (5 mg) powder is added into TFEB solution and incubated for 2 hours at 4° C. with shaking. The supernatant is discarded after centrifuge. The pellet (compounds and the bound protein) is washes 4 times in RIPA buffer and the bound proteins are eluted by adding 2% SDS sampling buffer. The bound proteins are separated on 10% SDS—polyacrylamide gel and visualized by TFEB antibody (Proteintech).

[2] = tested on: SH-SY5Y cells; assay: Real-time PCR of autophagy and lysosome genes in SH-SY5Y cells; assay type: cell-based, human; details: 1 μM, 12 h
Description: Various gene expressions in Hela cells (FIG. 7A) and SH-SY5Y cells (FIG. 7B) after treated with C1 (1 μM) for 12 h. mRNA transcript abundance is assessed by real-time PCR using specific primers for the indicated genes. Relative quantification (RQ) is presented as means±SD of three independent experiments. FIG. 7C is western blot showing the protein levels of autophagy marker (LC3-II), TFEB and lysosome markers (LAMP1, CTSD) in Hela and SH-SY5Y cells having treated with C1 (0.5, 1 μM) or sucrose (100 mM) for 12 h. The relative intensity of autophagy marker (LC3-II), TFEB and lysosome markers (LAMP1, CTSD) normalized to that of ACTB/β-actin in Hela cells (FIG. 7D) and SH-SY5Y cells (FIG. 7E). Data are presented as the mean±SD from three independent experiments. *p<0.05 vs. the control (0.1% DMSO). […] Autophagy-enhancing effect of C1 is TFEB-dependent. Data are presented as the mean±SD from three independent experiments. *p<0.05 vs. the control. N. S.=not significant.
Total RNA is extracted from cells and tissues using RNeasy Plus Mini Kit (74134, Qiagen). Reverse transcription is performed using High-Capacity cDNA Reverse Transcription Kit (4368814, Life Technologies). […] Fold changes are calculated using the ΔΔCT method and the results were normalized against an internal control (GAPDH or ACTB).

[3] = tested on: endogenous SNCA; assay: Chronic (21 days) oral administration in SD rats: autophagy markers, SNCA, tolerability; assay type: in vivo; details: oral 10 mg/kg for 21 days
Description: SD rats (n=6 per group) are orally administered by gavage with C1 (10 mg/kg per day) or vehicle (1% CMC-Na) for 21 days. An additional dosage of C1 is given for 6 h before the rats are killed. FIG. 11A is western blots showing the protein levels as indicated in the liver, frontal cortex and striatum. FIG. 11B-11D are quantitative data protein levels in the liver frontal cortex and striatum. Data are presented as the mean±SD (n=6). *p<0.05 vs. the vehicle treatment.
All animal care and procedures are approved by the Hong Kong Baptist University Committee on the Use of Human and Animal Subjects in Teaching and Research. Adult male Sprague-Dawley (SD) rats weighted 350-400 g are maintained on ad libitum food and water with a 12-hour light/dark cycle in a controlled environment. For short-term treatment, rats (n=6 per group) are orally administered by gavage with C1 (10 mg/kg and 25 mg/kg per day) or vehicle (1% sodium carbonyl methylcellulose (CMC-Na)) for 24 h. For chronic treatment, C1 (10 mg/kg per day) is given by gavage to rats for 21 days. At the end of each treatment, an additional dosage of C1 is given for 6 h before the rats are killed. Livers and major brain regions dissected are snap-frozen in liquid nitrogen.
Cells are lysed on ice in 1× Lysis Buffer (9803, Life Technologies) with complete protease inhibitor mixture (04693124001, Roche Applied Science). Animal tissues are homogenized in nine volumes of ice-cold PBS supplemented with protease inhibitors. Cytosolic and nuclear fractions are isolated using protocols similar to those described previously. Anti-Flag or TFEB antibody is added to the whole cell lysates and Dynabeads® Protein G (10003D, Life Technologies) is used for immunoprecipitation. Proteins are separated by 10-15% SDS-PAGE, transferred, and blotted with the antibodies described. The blots are then incubated with secondary antibodies or the Clean-Blot IP Detection Reagent (21230, Thermo Scientific) at room temperature for 1 h. The protein signals are detected by ECL kit (32106, Pierce) and quantified using ImageJ software.
Rats receive oral administration of C1 (10 mg/kg) for 21 days. Another dose of C1 is given for 6 h and the average concentration of C1 in brain tissues is 0.849±0.302 μg/g. Then the autophagy markers in the livers and brains are analyzed. Chronic C1 treatment increases the levels of LC3-II in the livers (FIGS. 11 A and B). […] During the treatment procedure, no changes in body weight or behavior abnormalities are observed.

SMILES	direct binding to purified TFEB [1]	mRNA of TFEB and genes involved in autophagy and lysosome biogenesis [2]	body weight or behavior abnormalities during treatment [3]	histological evaluation of major organs (liver, lungs, kidneys, and pancreas) [3]	levels of LC3-II in the livers [3]	levels of TFEB and LC3-II in frontal cortex and striatum [3]	levels of endogenous SQSTM1/p62 and SNCA in rats' brains [3]
COc1cc(/C=C/C(=O)CC(=O)/C=C/c2ccc(O)c(OC)c2)ccc1O [curcumin, Curcumin, reference compound]	not	–	–	–	–	–	–
COc1ccccc1/C=C/C(=O)/C=C/c1ccccc1OC [C1, 1,5-bis(2-methoxyphenyl)penta-1,4-dien-3-one]	can directly bind	up-regulated	no changes	do not reveal any morphological abnormalities	increases	significantly increases	significantly decrease

— patent US9540299B2, “MTOR-independent activator of TFEB for autophagy enhancement and uses thereof” (Hong Kong Baptist University, priority 2015, dated 2017)
